Reference: ChEMBL document CHEMBL1150536, “Synthesis and pharmacological characterization of l-trans-4-tetrazolylproline (ly300020): A novel systemically-active ampa receptor agonist” (Bioorg Med Chem Lett, 1993)
Calls of active or inactive are those of the source. The rule behind the calls is not given here.

Experiments:
[1] = target: Glutamate receptor ionotropic, kainate; assay: Tested for the ability to displace [3H]kainate (5 nM) binding from Ionotropic glutamate receptor kainate in rat forebrain membranes; assay type: cell membranes, Membrane
[2] = target: Glutamate receptor ionotropic, NMDA 2C (Rattus norvegicus, UniProt Q00961); assay: Tested for the ability to displace [3H]CGS-19,755 (10 nM) binding in rat forebrain membranes for NMDA receptor; assay type: cell membranes, Membrane
Chain of Glutamate receptor ionotropic, NMDA 2C (Q00961 whole entry): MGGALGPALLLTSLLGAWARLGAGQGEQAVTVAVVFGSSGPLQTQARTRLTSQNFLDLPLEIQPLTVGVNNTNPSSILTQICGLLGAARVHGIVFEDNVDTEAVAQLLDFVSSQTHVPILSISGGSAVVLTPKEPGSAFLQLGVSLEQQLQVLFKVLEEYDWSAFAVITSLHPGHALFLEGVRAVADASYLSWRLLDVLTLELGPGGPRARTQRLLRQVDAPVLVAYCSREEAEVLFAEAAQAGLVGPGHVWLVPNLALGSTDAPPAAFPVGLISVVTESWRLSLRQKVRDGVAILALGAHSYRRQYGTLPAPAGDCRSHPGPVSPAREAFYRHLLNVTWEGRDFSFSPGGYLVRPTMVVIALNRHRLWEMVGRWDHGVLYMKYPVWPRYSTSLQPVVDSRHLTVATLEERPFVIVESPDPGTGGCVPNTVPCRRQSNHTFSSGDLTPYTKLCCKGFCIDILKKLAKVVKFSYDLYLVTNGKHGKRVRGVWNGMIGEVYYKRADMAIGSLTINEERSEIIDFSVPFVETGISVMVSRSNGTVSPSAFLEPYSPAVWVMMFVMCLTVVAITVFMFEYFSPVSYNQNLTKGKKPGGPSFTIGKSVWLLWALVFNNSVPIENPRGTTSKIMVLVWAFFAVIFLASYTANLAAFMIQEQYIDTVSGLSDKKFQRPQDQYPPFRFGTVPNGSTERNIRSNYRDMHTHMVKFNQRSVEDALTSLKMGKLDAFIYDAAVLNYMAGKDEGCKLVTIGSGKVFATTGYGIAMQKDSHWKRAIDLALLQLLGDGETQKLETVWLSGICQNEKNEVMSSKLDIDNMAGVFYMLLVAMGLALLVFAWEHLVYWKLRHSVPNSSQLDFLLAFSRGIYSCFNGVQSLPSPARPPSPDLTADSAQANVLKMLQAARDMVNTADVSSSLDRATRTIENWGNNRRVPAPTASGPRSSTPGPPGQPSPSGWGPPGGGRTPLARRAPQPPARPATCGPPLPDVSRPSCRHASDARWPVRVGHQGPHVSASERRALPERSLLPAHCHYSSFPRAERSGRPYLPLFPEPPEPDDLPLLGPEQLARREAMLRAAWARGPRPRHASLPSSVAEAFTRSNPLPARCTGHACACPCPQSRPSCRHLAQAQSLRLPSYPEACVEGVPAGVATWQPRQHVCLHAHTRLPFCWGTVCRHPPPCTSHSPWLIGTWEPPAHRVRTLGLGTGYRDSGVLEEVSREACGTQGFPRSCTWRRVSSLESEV

[3] = target: Glutamate receptor ionotropic, AMPA (Rattus norvegicus, UniProt P19490+P19491+P19492+P19493); assay: Tested for the ability to displace [3H]AMPA (5 nM) from Ionotropic glutamate receptor AMPA in rat forebrain membranes; assay type: cell membranes, Membrane
Rattus norvegicus = species: Rattus norvegicus; assay: Tested for the ability to antagonize depolarizations induced by NMDA (40 uM), AMPA (40 uM); insignificant; assay type: functional

IC50 [1] [µM] | IC50 [2] [µM] | IC50 [3] [µM] | SMILES | Effect (Rattus norvegicus)
> 100 | > 100 | > 100 | O=C(O)[C@H]1CN[C@H](C(=O)O)C1 | 
> 100 | > 100 | > 100 | O=C(O)[C@H]1C[C@H](c2nnn[nH]2)CN1 | 
61 | > 100 | 3.38 | O=C(O)[C@@H]1C[C@@H](c2nnn[nH]2)CN1 | inactive
